Results published in patent US20110306597A1, “Nicotinamide Derivatives” (priority 2008, published 2011).
Each block holds one compound with its values, some of them ahead of it.

Target: human recombinant H-PGDS (Homo sapiens, UniProt O60760)
Test: Fluorescence Intensity h-PGDS TBA Enzyme Assay
Type: biochemical
Conditions: 1:175,000 human recombinant H-PGDS, highest inhibitor concentration typically 1 μM
Summary of the method: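 Recombinant human H-PGDS preincubated 10 min at room temperature with inhibitor in 100 mM Tris pH 8.0, 100 μM MgCl2, 2.5 mM glutathione, 0.5% DMSO; 5.0 μM PGH2 added, stopped after 42 s with FeCl2/citric acid. Remaining PGH2 measured as MDA–TBA fluorescence (ex 530/em 565 nm); IC50 by 4-parameter fit, 11 concentrations.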

Chain of human recombinant H-PGDS (O60760 whole entry): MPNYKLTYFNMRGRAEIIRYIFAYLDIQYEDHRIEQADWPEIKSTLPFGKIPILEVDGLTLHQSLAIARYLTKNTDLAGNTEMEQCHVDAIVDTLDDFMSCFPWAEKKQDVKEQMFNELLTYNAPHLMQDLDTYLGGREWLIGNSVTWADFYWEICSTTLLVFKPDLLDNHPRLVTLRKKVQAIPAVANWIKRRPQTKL

- IC50: 3 nM
SMILES: CCOC(=O)CC[C@H](NC(=O)c1ccc(-c2ccccc2)nc1)C(=O)OCC [Example 396, Diethyl N-[(6-phenylpyridin-3-yl)carbonyl]-L-glutamate]

- IC50: 18.8 nM
SMILES: CNS(=O)(=O)c1ccc(CNC(=O)c2ccc(-c3ccccc3)nc2)cc1 [Example 397, N-{4-[(Methylamino)sulfonyl]benzyl}-6-phenylnicotinamide]

- IC50: 3.3 nM
SMILES: Cc1cc(Br)ccc1NC(=O)c1ccc(-c2ccccc2)nc1 [Example 398, N-(4-Bromo-2-methylphenyl)-6-phenylnicotinamide]

- IC50: 27.6 nM
SMILES: O=C(NCC1CCCCO1)c1ccc(-c2ccccc2)nc1 (centres unmarked) [Example 399, 6-Phenyl-N-(tetrahydro-2H-pyran-2-ylmethyl) nicotinamide]

- IC50: 86.1 nM
SMILES: COc1ccc(C(CNC(=O)c2ccc(-c3ccccc3)nc2)N2CCOCC2)cc1 (centres unmarked) [Example 400, N-[2-(4-Methoxyphenyl)-2-morpholin-4-ylethyl]-6-phenylnicotinamide]

- IC50: 31.1 nM
SMILES: CCOC(=O)CC(NC(=O)c1ccc(-c2ccccc2)nc1)c1ccc(Cl)cc1 (centres unmarked) [Example 401, Ethyl 3-(4-chlorophenyl)-3-{[(6-phenylpyridin-3-yl)carbonyl]amino}propanoate]

- IC50: 8 nM
SMILES: O=C(Nc1cccn(Cc2ccccc2)c1=O)c1ccc(-c2ccccc2)nc1 [Example 402, N-(1-Benzyl-2-oxo-1,2-dihydropyridin-3-yl)-6-phenylnicotinamide]

- IC50: 238 nM
SMILES: COC(=O)[C@H](Cc1ccc(Cl)cc1)NC(=O)c1ccc(-c2cccc(F)c2)nc1 [Example 403, Methyl 4-chloro-N-{[6-(3-fluorophenyl)pyridin-3-yl]carbonyl}phenylalaninate]

- IC50: 17.4 nM
SMILES: Cc1ccc(CNC(=O)c2ccc(-c3cccc(F)c3)nc2)cc1 [Example 404, 6-(3-Fluorophenyl)-N-(4-methylbenzyl)nicotinamide]

- IC50: 211 nM
SMILES: O=C(NCc1cccc(F)c1)c1ccc(-c2cccc(F)c2)nc1 [Example 405, N-(3-Fluorobenzyl)-6-(3-fluorophenyl)nicotinamide]

- IC50: 101 nM
SMILES: CCOC(=O)CC(NC(=O)c1ccc(-c2cccc(F)c2)nc1)c1ccccc1 (centres unmarked) [Example 406, Ethyl 3-({[6-(3-fluorophenyl)pyridin-3-yl]carbonyl}amino)-3-phenylpropanoate]

- IC50: 149 nM
SMILES: CCOC(=O)CC(NC(=O)c1ccc(-c2cccc(F)c2)nc1)c1ccc(Cl)cc1 (centres unmarked) [Example 407, Ethyl 3-(4-chlorophenyl)-3-({[6-(3-fluorophenyl)pyridin-3-yl]carbonyl}amino)propanoate]

- IC50: 103 nM
SMILES: O=C(NCc1ccc(Br)cc1)c1ccc(-c2cccc(F)c2)nc1 [Example 408, N-(4-Bromobenzyl)-6-(3-fluorophenyl)nicotinamide]

- IC50: 233 nM
SMILES: O=C(NCc1ccc(C(F)(F)F)cc1)c1ccc(-c2cccc(F)c2)nc1 [Example 409, 6-(3-Fluorophenyl)-N-[4-(trifluoromethyl)benzyl] nicotinamide]

- IC50: 39.8 nM
SMILES: O=C(NCc1ccc(Cl)cc1)c1ccc(-c2cccc(F)c2)nc1 [Example 410, N-(4-Chlorobenzyl)-6-(3-fluorophenyl)nicotinamide]

- IC50: 127 nM
SMILES: CCOC(=O)CC(NC(=O)c1ccc(-c2cccc(F)c2)nc1)c1ccccc1Cl (centres unmarked) [Example 411, Ethyl 3-(2-chlorophenyl)-3-({[6-(3-fluorophenyl)pyridin-3-yl]carbonyl}amino)propanoate]

- IC50: 46.8 nM
SMILES: CSc1ccc(CNC(=O)c2ccc(-c3cccc(F)c3)nc2)cc1 [Example 412, 6-(3-Fluorophenyl)-N-[4-(methylthio)benzyl] nicotinamide]

- IC50: 92.9 nM
SMILES: NS(=O)(=O)c1ccc(CNC(=O)c2ccc(-c3cccc(F)c3)nc2)cc1 [Example 413, N-[4-(Aminosulfonyl)benzyl]-6-(3-fluorophenyl)nicotinamide]

- IC50: 35.3 nM
SMILES: COc1ccc(CNC(=O)c2ccc(-c3cccc(F)c3)nc2)cc1 [Example 414, 6-(3-Fluorophenyl)-N-(4-methoxybenzyl)nicotinamide]

The next lines start with the compound.

SMILES: Cc1ccc(CNC(=O)c2ccc(-c3ccccc3)nc2)cc1 [Example 365, N-(4-Methylbenzyl)-6-phenylnicotinamide]
- IC50: 4.2 nM

SMILES: O=C(NC1CCOCC1)c1ccc(-c2ccccc2)nc1 [Example 366, 6-Phenyl-N-(tetrahydro-2H-pyran-4-yl)nicotinamide]
- IC50: 7.5 nM

SMILES: O=C(CNC(=O)c1ccc(-c2ccccc2)nc1)OCc1ccccc1 [Example 367, Benzyl N-[(6-phenylpyridin-3-yl)carbonyl]glycinate]
- IC50: 6.6 nM

SMILES: CCCCNC(=O)c1ccc(-c2ccccc2)nc1 [Example 368, N-Butyl-6-phenylnicotinamide]
- IC50: 16.6 nM

SMILES: COC(=O)[C@H](Cc1ccc(Cl)cc1)NC(=O)c1ccc(-c2ccccc2)nc1 [Example 369, Methyl 4-chloro-N-[(6-phenylpyridin-3-yl)carbonyl]phenylalaninate]
- IC50: 9.3 nM

SMILES: COC(=O)CC(NC(=O)c1ccc(-c2ccccc2)nc1)c1cccnc1 (centres unmarked) [Example 370, Methyl 3-{[(6-phenylpyridin-3-yl)carbonyl]amino}-3-pyridin-3-ylpropanoate]
- IC50: 32.9 nM

SMILES: CCC1CCN(CCNC(=O)c2ccc(-c3ccccc3)nc2)CC1 [Example 371, N-[2-(4-Ethylpiperidin-1-yl)ethyl]-6-phenylnicotinamide]
- IC50: 20.1 nM

SMILES: CCOC(=O)C1(NC(=O)c2ccc(-c3ccccc3)nc2)CCOCC1 [Example 372, Ethyl 4-{[(6-phenylpyridin-3-yl)carbonyl]amino}tetrahydro-2H-pyran-4-carboxylate]
- IC50: 249 nM

SMILES: O=C(NCCN1CCCCC1=O)c1ccc(-c2ccccc2)nc1 [Example 373, N-[2-(2-Oxopiperidin-1-yl)ethyl]-6-phenylnicotinamide]
- IC50: 39.7 nM

SMILES: CN(C)C(=O)CNC(=O)c1ccc(-c2ccccc2)nc1 [Example 374, N-[2-(Dimethylamino)-2-oxoethyl]-6-phenylnicotinamide]
- IC50: 92.1 nM

SMILES: O=C(NCCN1CCNC1=O)c1ccc(-c2ccccc2)nc1 [Example 375, N-[2-(2-Oxoimidazolidin-1-yl)ethyl]-6-phenylnicotinamide]
- IC50: 25.5 nM

SMILES: N#CC(NC(=O)c1ccc(-c2ccccc2)nc1)C(=O)NCCN1CCOCC1 (centres unmarked) [Example 376, N-{1-Cyano-2-[(2-morpholin-4-ylethyl)amino]-2-oxoethyl}-6-phenylnicotinamide]
- IC50: 55.2 nM

SMILES: O=C(NC1CCN(Cc2ccc(Cl)cc2)C1=O)c1ccc(-c2ccccc2)nc1 (centres unmarked) [Example 377, N-[1-(4-Chlorobenzyl)-2-oxopyrrolidin-3-yl]-6-phenylnicotinamide]
- IC50: 11.2 nM

SMILES: CC(C)CNC(=O)c1ccc(-c2ccccc2)nc1 [Example 378, N-Isobutyl-6-phenylnicotinamide]
- IC50: 21 nM

SMILES: O=C(NCc1ccco1)c1ccc(-c2ccccc2)nc1 [Example 379, N-(2-Furylmethyl)-6-phenylnicotinamide]
- IC50: 4.79 nM

SMILES: O=C(NCc1ccccc1F)c1ccc(-c2ccccc2)nc1 [Example 380, N-(2-Fluorobenzyl)-6-phenylnicotinamide]
- IC50: 2.1 nM

SMILES: CCCCCNC(=O)c1ccc(-c2ccccc2)nc1 [Example 381, N-Pentyl-6-phenylnicotinamide]
- IC50: 7.5 nM

SMILES: O=C(NCCN1CCN(Cc2ccccc2)CC1)c1ccc(-c2ccccc2)nc1 [Example 382, N-[2-(4-Benzylpiperazin-1-yl)ethyl]-6-phenylnicotinamide]
- IC50: 9.1 nM

SMILES: O=C(NC1CCN(Cc2ccc(Cl)c(Cl)c2)C1=O)c1ccc(-c2ccccc2)nc1 (centres unmarked) [Example 383, N-[1-(3,4-Dichlorobenzyl)-2-oxopyrrolidin-3-yl]-6-phenylnicotinamide]
- IC50: 16.5 nM

SMILES: CCOC(=O)CC(NC(=O)c1ccc(-c2ccccc2)nc1)c1ccccc1Cl (centres unmarked) [Example 384, ethyl 3-(2-Chlorophenyl)-3-{[(6-phenylpyridin-3-yl)carbonyl]amino}propanoate]
- IC50: 39.6 nM

SMILES: O=C(NCc1ccc(C(F)(F)F)cc1)c1ccc(-c2ccccc2)nc1 [Example 385, 6-Phenyl-N-[4-(trifluoromethyl)benzyl] nicotinamide]
- IC50: 42.7 nM

SMILES: CCOC(=O)CCCNC(=O)c1ccc(-c2ccccc2)nc1 [Example 386, Ethyl 4-{[(6-phenylpyridin-3-yl)carbonyl]amino}butanoate]
- IC50: 23.2 nM

SMILES: CC(=O)N1CCC(CNC(=O)c2ccc(-c3ccccc3)nc2)CC1 [Example 387, N-[(1-Acetylpiperidin-4-yl)methyl]-6-phenylnicotinamide]
- IC50: 20.9 nM

SMILES: CN1CCC(CCNC(=O)c2ccc(-c3ccccc3)nc2)CC1 [Example 388, N-[2-(1-Methylpiperidin-4-yl)ethyl]-6-phenylnicotinamide]
- IC50: 15.7 nM

SMILES: O=C(NCCN1CCOCC1)c1ccc(-c2ccccc2)nc1 [Example 389, N-(2-Morpholin-4-ylethyl)-6-phenylnicotinamide]
- IC50: 23.9 nM

SMILES: CC(O)CNC(=O)c1ccc(-c2ccccc2)nc1 (centres unmarked) [Example 390, N-(2-Hydroxypropyl)-6-phenylnicotinamide]
- IC50: 13 nM

SMILES: CCn1c(CCNC(=O)c2ccc(-c3ccccc3)nc2)nc2cc(C(=O)NCCOC)ccc21 [Example 391, 1-Ethyl-N-(2-methoxyethyl)-2-(2-{[(6-phenylpyridin-3-yl)carbonyl]amino}ethyl)-1H-benzimidazole-5-carboxamide]
- IC50: 0.906 nM

SMILES: Cc1cccc(NC(=O)c2ccc(-c3ccccc3)nc2)c1 [Example 392, N-(3-Methylphenyl)-6-phenylnicotinamide]
- IC50: 1.12 nM

SMILES: CCOC(=O)C(CNC(=O)c1ccc(-c2ccccc2)nc1)C1CCCC1 (centres unmarked) [Example 393, Ethyl 2-cyclopentyl-3-{[(6-phenylpyridin-3-yl)carbonyl]amino}propanoate]
- IC50: 1.96 nM

SMILES: CCOC(=O)CC(NC(=O)c1ccc(-c2ccccc2)nc1)c1ccccc1 (centres unmarked) [Example 394, Ethyl 3-phenyl-3-{[(6-phenylpyridin-3-yl)carbonyl]amino}propanoate]
- IC50: 24.4 nM

SMILES: O=C(NCCCNc1ccccn1)c1ccc(-c2ccccc2)nc1 [Example 395, 6-Phenyl-N-[3-(pyridin-2-ylamino)propyl]nicotinamide]
- IC50: 4.1 nM
